pEC50: −log10 of the molar value. Where only a bound is given, the exact number is not on record here.

One may read the pEC50 as −log10 of the EC50, conventionally taken in molar units.

Experiment [1] deals with 5HT2A receptor (Homo sapiens, UniProt P28223). Briefly: EC50 against the 5HT2A receptor (selectivity). It counts as cell-based.
Experiment [2] has as its target T1, human 5HT2C receptor (Homo sapiens, UniProt P28335).
T1 construct: expressed in transfected cells; host or cells: HEK293
T1 sequence (P28335 33-458): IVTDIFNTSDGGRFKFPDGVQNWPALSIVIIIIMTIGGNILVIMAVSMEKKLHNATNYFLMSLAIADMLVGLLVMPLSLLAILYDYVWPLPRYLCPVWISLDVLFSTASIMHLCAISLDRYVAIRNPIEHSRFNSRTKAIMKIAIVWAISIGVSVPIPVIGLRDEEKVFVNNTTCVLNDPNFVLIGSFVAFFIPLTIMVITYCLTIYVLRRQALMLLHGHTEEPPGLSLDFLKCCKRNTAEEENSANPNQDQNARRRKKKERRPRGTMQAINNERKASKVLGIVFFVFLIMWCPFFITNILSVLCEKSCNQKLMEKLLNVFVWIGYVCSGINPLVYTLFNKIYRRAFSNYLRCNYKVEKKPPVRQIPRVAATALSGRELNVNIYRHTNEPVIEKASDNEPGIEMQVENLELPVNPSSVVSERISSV
Kind of experiment: Intracellular IP3 accumulation assay, 5HT2C. The note with it: HEK293 cells transfected with human 5HT2C receptor cDNA; read-out: 5HT2C (EC50) IP Accumulation Assay. In kind it is cell-based. As for the experimental part: Intracellular IP3 Accumulation Assay:
HEK293 cells were transfected in 15 cm sterile dishes with or without (control) 16 ug of human 5HT2C receptor cDNA [for example see, Saltzman, A. G., et al. Biochem. Biophys. Res. Commun. 181, 1469-1478 (1991)] using 25 ul of lipofectamine. Cells were then incubated for 3-4 hours at 37° C./5% CO2 and then transfection media was removed and replaced with 100 ul of DMEM. Cells were then plated onto 100 cm sterile dishes. The next day cells were plated into 96 well PDL microtiter plates at a density of 55 K/0.2 mL. Six hours latter, media was exchanged with [^3H]inositol (0.25 uCi/well) in inositol free DMEM and plates were incubated at 37° C./5% CO2 overnight. The next day, wells were aspirated and 200 ul of DMEM containing test compound, 10 uM pargyline, and 10 mM LiCl was added to appropriate wells. Plates were then incubated at 37° C./5% CO2 for three hours followed aspiration and by addition of fresh ice cold stop solution (1M KOH, 19 mM Na-borate, 3.8 mM EDTA) to each well. Plates were kept on ice for 5-10 min and the wells were neutralized by addition of 200 ul of fresh ice cold neutralization solution (7.5% HCl). Plates were then frozen until further processing is desired. The lysate was then transferred into 1.5 mL Eppendorf tubes and 1 mL of chloroform/methanol (1:2) was added/tube. […]

For experiment [3], the target named is 5HT2B receptor (Homo sapiens, UniProt P41595). Kind of experiment: Activity against the 5HT2B receptor (selectivity). In kind it is cell-based.
5HT2B receptor, sequence (P41595 whole entry): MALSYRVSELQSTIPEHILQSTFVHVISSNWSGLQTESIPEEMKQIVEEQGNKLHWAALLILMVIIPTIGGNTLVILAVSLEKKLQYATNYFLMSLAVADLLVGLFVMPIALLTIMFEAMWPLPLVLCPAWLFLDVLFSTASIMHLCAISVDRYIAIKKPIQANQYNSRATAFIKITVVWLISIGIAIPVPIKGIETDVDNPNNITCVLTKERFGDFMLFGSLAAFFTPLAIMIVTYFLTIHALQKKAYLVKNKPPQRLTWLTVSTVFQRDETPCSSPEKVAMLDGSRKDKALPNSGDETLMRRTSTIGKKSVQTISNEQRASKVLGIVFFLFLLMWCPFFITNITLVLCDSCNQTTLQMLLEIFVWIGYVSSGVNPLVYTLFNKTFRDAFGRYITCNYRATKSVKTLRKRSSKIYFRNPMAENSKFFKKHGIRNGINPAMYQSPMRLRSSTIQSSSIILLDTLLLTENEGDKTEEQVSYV
Experiment [4] has as its system amyloid precursor protein (APPs) secretion. The note with it: guinea pigs, repeat administration; cited from earlier work.

5HT2A receptor, sequence (P28223 whole entry): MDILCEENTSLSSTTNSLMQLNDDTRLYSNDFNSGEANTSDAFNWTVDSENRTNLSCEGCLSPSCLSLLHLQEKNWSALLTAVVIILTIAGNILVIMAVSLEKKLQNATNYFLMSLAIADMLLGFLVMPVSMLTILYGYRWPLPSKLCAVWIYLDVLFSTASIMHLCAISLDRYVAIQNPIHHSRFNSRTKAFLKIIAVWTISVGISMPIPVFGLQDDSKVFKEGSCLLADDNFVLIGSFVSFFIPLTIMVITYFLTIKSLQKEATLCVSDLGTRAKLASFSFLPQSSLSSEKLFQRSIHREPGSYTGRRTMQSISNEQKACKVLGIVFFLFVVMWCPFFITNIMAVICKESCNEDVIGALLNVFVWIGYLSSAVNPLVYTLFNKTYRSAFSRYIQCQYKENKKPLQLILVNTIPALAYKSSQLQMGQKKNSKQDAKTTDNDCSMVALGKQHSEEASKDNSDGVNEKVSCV

`Fc1cc(-c2ccsc2)cc(N2CCNCC2)c1` [Compound 1, 1-(3-Fluoro-5-thiophen-3-yl-phenyl)-piperazine]: the pEC50 in experiment [1] was less than 5.00; in experiment [2], 8.15. For the same compound, the “activity against the 5HT2B receptor” value in experiment [3] is “essentially inactive”.
Regarding `Fc1ccc(-c2ccccc2)cc1N1CCNCC1` [Compound 10, 1-(4-Fluoro-biphenyl-3-yl)-piperazine], the pEC50 in experiment [2] was 7.68. Moreover, in experiment [3], the “activity against the 5HT2B receptor” value is “essentially inactive”.
Turning to `C[C@H](N)Cc1cccc(C(F)(F)F)c1` [dexnorfenfluramine], in experiment [4], the “amyloid precursor protein (APPs) secretion” value was “stimulated” and the “levels of Aβ production in vivo” value is “reducing levels”.

(Values after patent US20080119477A1, “N-Biaryl and N-Arylheteroaryl Piperazine Derivatives as Modulators of the 5Ht2c Receptor Useful For the Treatment of Disorders Related Thereto” (priority 2004, published 2008).)
